Holding throughout (assay): NCI anticancer screen, dose series, 48 h
Test [1] relates to DU-145 prostate.
Test [2] has as its system EKVX NSCLC.
Test [3] relates to HCC-2998 colon.
Test [4] relates to HCT-15 colon.
For test [5], the system named is HL-60(TB) leukemia.
In test [6] the test system is K-562 leukemia.
Test [7] relates to OVCAR-3 ovarian.
Test [8] concerns OVCAR-8 ovarian.
Test [9] has as its system RPMI-8226 leukemia.
In test [10] the test system is UO-31 renal.

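Tested at 5 concentrations; 48 h exposure; 96-well plates; endpoints linearly interpolated, else capped at highest concentration. GI50 marks 50% less growth. TGI is the concentration that stops growth completely.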 Some results are limits rather than exact numbers.

`CCN(CC)CCNc1nc(N)c(C#N)c(C#N)c1C#N`: the TGI in [1], in test [2], in test [3], in test [4], in [5] and in [6] was above 10 µM in each case. Besides, the TGI in [7], in [8], in test [9] and in test [10] was above 10 µM each time.

Consider `O=C(/C=C/c1ccc[nH]1)c1ccc(-n2ccc(C(F)(F)F)n2)cc1`, for which the GI50 in [1] is above 100 µM; in [2], above 100 µM; in [3] it was above 100 µM; in test [4], above 100 µM; in [5], 0.307 µM; in [6] it was 38.6 µM. Moreover, the GI50 in [7] is 0.764 µM; in test [8], above 100 µM; in test [9], 0.436 µM; in test [10], 0.56 µM. Besides, the TGI in test [1] is above 100 µM; in test [2] it was above 100 µM; in test [3], above 100 µM; in [4], above 100 µM; in test [5], 4.12 µM; in test [6], above 100 µM. Also, the TGI is 22.6 µM in test [7], above 100 µM in test [8], 8.15 µM in test [9] and 2.4 µM in test [10].

For the compound `COC(=O)[C@]12CC[C@@H](C)[C@H](C)[C@@H]1C1=CC[C@@H]3[C@@]4(C)C[C@@H](O)[C@H](O)[C@@](C)(CO)C4=CC[C@@]3(C)[C@]1(C)CC2`, the GI50 in [1] is 16.3 µM; in [2], 15.9 µM; in [3] it was 17.3 µM; in test [4], 15.1 µM; in test [5], 16.8 µM; in test [6] it was 17.5 µM. In addition, the GI50 is 18.3 µM in test [7], 15.7 µM in [8], 13.9 µM in [9] and 14.6 µM in [10]. Further, the TGI worked out at 32.6 µM in test [1]; 32.5 µM in test [2]; 34.8 µM in test [3]; 31 µM in test [4]; 34.7 µM in [5]; 36.6 µM in test [6]. The TGI was 37.8 µM in test [7], 33.8 µM in test [8], 34.6 µM in [9] and 30.1 µM in test [10].

In the case of `Cc1c(N(C)C)ccc2c(=O)c3cccc(CC(=O)O)c3oc12`, the TGI in test [1], in test [2], in test [3], in [4], in test [5] and in [6] was above 100 µM each time. Moreover, the TGI in [7], in [8], in test [9] and in test [10] was above 100 µM each time.

`CCC[CH2][Sn]([CH2]CCC)([O]C(=O)c1ccc(OC)c(OC)c1OC)[O][Sn]([CH2]CCC)([CH2]CCC)[O]C(=O)c1ccc(OC)c(OC)c1OC`: the GI50 in [1] was 1.01 µM; in [2], 1.39 µM; in test [3], 0.341 µM; in [4], 0.175 µM; in test [5] it was 0.112 µM; in [6], 0.0416 µM. Also, the GI50 was 0.406 µM in [7], 0.299 µM in test [8], 0.104 µM in [9] and 0.546 µM in test [10]. Besides, the TGI in test [1] amounted to 2.17 µM; in [2], 2.76 µM; in test [3] it was 1.5 µM; in test [4] it was 0.526 µM; in [5], 0.554 µM; in test [6] it was 1.86 µM. Also, the TGI in test [7] came out at 1.18 µM; in test [8], 0.979 µM; in test [9], 0.846 µM; in test [10], 1.18 µM.

Regarding `O=c1c(F)cn(Cc2ccc(C34CC5CC(CC(C5)C3)C4)c(O)c2)c(=O)n1Cc1ccc(C23CC4CC(CC(C4)C2)C3)c(O)c1`, the GI50 in [1] was 8.59 µM; in test [2], 15.8 µM; in test [3], 17.8 µM; in test [4], 13.6 µM; in test [5], 8.32 µM; in test [6], 5.29 µM. The GI50 was 15.3 µM in [7], 14.5 µM in [8], 15.4 µM in [9] and 17.5 µM in test [10]. Besides, the TGI is 22.9 µM in [1]; 34.8 µM in test [2]; 33.2 µM in test [3]; 26.5 µM in [4]; 54.2 µM in test [5]; above 100 µM in [6]. The TGI in test [7] turned out to be 29.2 µM; in test [8], 45.5 µM; in test [9] it was 60.4 µM; in test [10] it was 41.4 µM.

The values are drawn from PubChem BioAssay (NCI).
